Results published in patent US5428059A, “Benzopyran derivatives and an anti-allergic agent possessing the same as the active ingredient” (Dainippon Ink & Chemicals, Inc., priority 1991, dated 1995).

system: Hartley-type male guinea pigs; experiment: Guinea Pig Homogeneous Skin Passive Anaphylaxis Assay (PCA reaction); assay type: in vivo, guinea pig (Hartley-type); settings: 10 mg/kg oral, 48 h after sensitization
Procedure, shortened: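 Male Hartley guinea pigs (250~300 g) given intradermal back injections of 120-fold-diluted anti-OVA serum; 48 h later test substance dosed orally at 10 mg/kg, then challenged i.v. with OVA plus Evans Blue. Dye-spot area (long × short diameter, mm^2) measured at 30 min; inhibition % calculated against solvent control.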

Compound	Allergic reaction inhibitory index (%)
CC(=O)Oc1ccc2c(OC(C)=O)c(OC/C=C(\C)CCC=C(C)C)c(=O)oc2c1 [Compound 22, 3-(geranyloxy)-4,7-(diacetoxy)-2H-1-benzopyran-2-one]	31

same assay, conditions: Cavia porcellus, 10 mg/kg oral, 48 h after sensitization, read-out: Allergic reaction inhibitory index (%)

Compound	inhibition in vivo at 10 mg/kg [%]
COc1cccc2c(O)c(OC(=O)c3ccccc3)c(=O)oc12 [Compound 110, 3-(benzoyloxy)-4-hydroxy-8-(methoxy)-2H-1-benzopyran-2-one]	31
CC(C)=CCC/C(C)=C/COc1c(OC/C=C(\C)CCC=C(C)C)c2c(O)cccc2oc1=O [Compound 193, 3,4-(digeranyloxy)-5-hydroxy-2H-1-benzopyran-2-one]	30
CCCCCCCCCCOc1cccc2c(OC)c(OC/C=C(\C)CCC=C(C)C)c(=O)oc12 [Compound 155, 3-(geranyloxy)-4-(methoxy)-8-(decyloxy)-2H-1-benzopyran-2-one]	30
CC(=O)Oc1c(O)c(=O)oc2cccc(O)c12 [Compound 178, 3,5-(dihydroxy)-4-(acetoxy)-2H-1-benzopyran-2-one]	30
CCCCCCCCCCOc1c(OC(=O)c2ccccc2)c2c(O)cccc2oc1=O [Compound 186, 3-(decyloxy)-4-(benzoyloxy)-5-hydroxy-2H-1-benzopyran-2-one]	32
CC(C)=CCC/C(C)=C/COc1ccc2c(OC/C=C(\C)CCC=C(C)C)c(OC(C)C)c(=O)oc2c1 [Compound 88, 3-(isopropoxy)-4,7-(digeranyloxy)-2H-1-benzopyran-2-one]	30
COc1c(OC/C=C(\C)CCC=C(C)C)c2cccc(OC(C)C)c2oc1=O [Compound 141, 3-(methoxy)-4-(geranyloxy)-8-(isopropoxy)-2H-1-benzopyran-2-one]	32
CCCCCCCCCCOc1c(O)c2cccc(OC(C)C)c2oc1=O [Compound 133, 3-(decyloxy)-4-hydroxy-8-(isopropoxy)-2H-1-benzopyran-2-one]	36
CC(C)=CCC/C(C)=C/COc1c(O)c2cccc(O)c2oc1=O [Compound 102, 3-(geranyloxy)-4,8-(dihydroxy)-2H-1-benzopyran-2-one]	35
COc1ccc2c(OC(=O)c3ccccc3)c(OC)c(=O)oc2c1 [Compound 30, 3,7-(dimethoxy)-4-(benzoyloxy)-2H-1-benzopyran-2-one]	31
COc1cccc2oc(=O)c(OC(C)=O)c(OC(=O)c3ccccc3)c12 [Compound 197, 3-(acetoxy)-4-(benzoyloxy)-5-(methoxy)-2H-1-benzopyran-2-one]	32
CCCCCCCCCCOc1c(OC(C)C)c2ccc(OC/C=C(\C)CCC=C(C)C)cc2oc1=O [Compound 80, 3-(decyloxy)-4-(isopropoxy)-7-(geranyloxy)-2H-1-benzopyran-2-one]	30
CCCCCCCCCCOc1ccc2c(O)c(OC/C=C(\C)CCC=C(C)C)c(=O)oc2c1 [Compound 67, 3-(geranyloxy)-4-hydroxy-7-(decyloxy)-2H-1-benzopyran-2-one]	39
COc1c(OC/C=C(\C)CCC=C(C)C)c(=O)oc2cccc(OC/C=C(\C)CCC=C(C)C)c12 [Compound 257, 3,5-(digeranyloxy)-4-(methoxy)-2H-1-benzopyran-2-one]	31
CC(=O)Oc1c(OC/C=C(\C)CCC=C(C)C)c(=O)oc2cc(OC/C=C(\C)CCC=C(C)C)ccc12 [Compound 85, 3,7-(digeranyloxy)-4-(acetoxy)-2H-1-benzopyran-2-one]	33
CCCCCCCCCCOc1c(OC(=O)c2ccccc2)c2c(OC)cccc2oc1=O [Compound 202, 3-(decyloxy)-4-(benzoyloxy)-5-(methoxy)-2H-1-benzopyran-2-one]	30
CC(C)Oc1cccc2c(O)c(OC(=O)c3ccccc3)c(=O)oc12 [Compound 129, 3-(benzoyloxy)-4-hydroxy-8-(isopropoxy)-2H-1-benzopyran-2-one]	36
